≈ marks a conversion by molar mass, not a printed value. Like-named read-outs stand apart in the source and are kept apart here. *1 amine or outer side, *2 acyl side, *3 side chain or, on linkers, in order; H or OH if unused. Where a SMILES comes first, the peptide text is derived from it. Bridges are numbered along the chain shown (N, C = ends). [ ]: non-standard residue; d: D form. The star is where a group is joined. Phe(3,5-F2) = N[C@@H](Cc1cc(F)cc(F)c1)C(=O)O; NMepT = CN[C@H](C(=O)O)[C@@H](C)OP(=O)(O)O; NH(4-OCF3-phenyl) = FC(F)(F)Oc1ccc(N*)cc1; Pro(4S-Me) = C[C@@H]1CN[C@H](C(=O)O)C1; Pro(4R-Me) = C[C@H]1CN[C@H](C(=O)O)C1; NH(4-Et-phenyl) = CCc1ccc(N*)cc1; NMeT = CN[C@H](C(=O)O)[C@@H](C)O; NH(4-Me-phenyl) = Cc1ccc(N*)cc1; aThr = C[C@H](O)[C@H](N)C(=O)O; CO = O=C([*:1])[*:2]
Assays:
Format in all cases: cell-based
[1] = test system: Bacillus subtilis, ATCC 23857; assay: Minimal inhibitory concentration assay (microbroth dilution)
Outline: (§1)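 Paired MICs against USA 300 and its ClpP-inactivated counterpart test whether killing runs through ClpP. All strains: two-fold broth dilutions from 200 μM final, ~10^5 cfu/mL inoculum, overnight at 37 °C in air, lowest growth-free concentration read by eye.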

[2] = test system: Staphylococcus aureus, ATCC 29213; assay: as above; conditions: ATCC29213, read-out: Minimal Inhibitory Concentrations S. aureus ATCC 29213
Outline: as §1

[3] = test system: Staphylococcus aureus, NRS70; assay: as above
Outline: as §1

[4] = test system: Streptococcus pneumoniae, R6; assay: Minimal inhibitory concentration assay; conditions: read-out: Minimal Inhibitory Concentrations S. pneumoniae R6
Outline: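 Microbroth dilution with two-fold serial compound dilutions in broth, incubated aerobically overnight at 37° C. MIC taken as the lowest concentration preventing bacterial growth.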

[5] = Bacillus subtilis, ATCC23857, read-out: Minimal Inhibitory Concentrations B. subtilis ATCC 23857
[6] = Staphylococcus aureus, NRS70, read-out: Minimal Inhibitory Concentrations S. aureus NRS70
[7] = Bacillus subtilis, ATCC23857; read-out: Minimal Inhibitory Concentrations B. subtilis ATCC 23857
[8] = Staphylococcus aureus, NRS70; read-out: Minimal Inhibitory Concentrations S. aureus NRS70

Compound | MIC [1, 5] | MIC [2] | MIC [3, 6] | MIC [4] | MIC [1, 7] | MIC [3, 8]
Cc1ccc(NC(=O)N[C@@H](Cc2cc(F)cc(F)c2)C(=O)N[C@@H]2C(=O)N3CCC[C@H]3C(=O)N(C)[C@@H]([C@@H](C)O)C(=O)N[C@@H](C)C(=O)N3C[C@@H](C)C[C@H]3C(=O)O[C@H]2C)cc1 [Compound 35, (S)-3-(3,5-difluorophenyl)-N-((2S,6S,9S,11aS,17S,18S,20aS)-9-((R)-1-hydroxyethyl)-2,6,10,18-tetramethyl-5,8,11,16,20-pentaoxohexadecahydro-1H,5H,16H-dipyrrolo[2,1-c:2′,1′-l][1]oxa[4,7,10,13]tetraazacyclohexadecin-17-yl)-2-(3-(p-tolyl)ureido)propanamide] ({NH(4-Me-phenyl)-CO}-[Phe(3,5-F2)][aThr]P[NMeT]A[Pro(4S-Me)]; ester 2-C) | 0.2 µM (≈ 0.162 µg/mL) | 0.2 µM (≈ 0.162 µg/mL) | 0.1 µM (≈ 0.0812 µg/mL) | 0.049 µM (≈ 0.0398 µg/mL) |  | 
C[C@H]1C[C@H]2C(=O)O[C@@H](C)[C@H](NC(=O)[C@H](Cc3cc(F)cc(F)c3)NC(=O)Nc3ccc(OC(F)(F)F)cc3)C(=O)N3CCC[C@H]3C(=O)N(C)[C@@H]([C@@H](C)O)C(=O)N[C@@H](C)C(=O)N2C1 [Compound 36, (S)-3-(3,5-difluorophenyl)-N-((2S,6S,9S,11aS,17S,18S,20aS)-9-((R)-1-hydroxyethyl)-2,6,10,18-tetramethyl-5,8,11,16,20-pentaoxohexadecahydro-1H,5H,16H-dipyrrolo[2,1-c:2′,1′-l][1]oxa[4,7,10,13]tetraazacyclohexadecin-17-yl)-2-(3-(4-(trifluoromethoxy)phenyl)ureido)propanamide] ({NH(4-OCF3-phenyl)-CO}-[Phe(3,5-F2)][aThr]P[NMeT]A[Pro(4S-Me)]; ester 2-C) |  | 0.1 µM (≈ 0.0882 µg/mL) |  | 0.024 µM (≈ 0.0212 µg/mL) | 0.1 µM (≈ 0.0882 µg/mL) | 0.05 µM (≈ 0.0441 µg/mL)
CCc1ccc(NC(=O)N[C@@H](Cc2cc(F)cc(F)c2)C(=O)N[C@@H]2C(=O)N3CCC[C@H]3C(=O)N(C)[C@@H]([C@@H](C)O)C(=O)N[C@@H](C)C(=O)N3C[C@@H](C)C[C@H]3C(=O)O[C@H]2C)cc1 [Compound 37, (S)-3-(3,5-difluorophenyl)-2-(3-(4-ethylphenyl)ureido)-N-((2S,6S,9S,11aS,17S,18S,20aS)-9-((R)-1-hydroxyethyl)-2,6,10,18-tetramethyl-5,8,11,16,20-pentaoxohexadecahydro-1H,5H,16H-dipyrrolo[2,1-c:2′,1′-l][1]oxa[4,7,10,13]tetraazacyclohexadecin-17-yl)propanamide] ({NH(4-Et-phenyl)-CO}-[Phe(3,5-F2)][aThr]P[NMeT]A[Pro(4S-Me)]; ester 2-C) |  | 0.1 µM (≈ 0.0826 µg/mL) |  | 0.024 µM (≈ 0.0198 µg/mL) | 0.05 µM (≈ 0.0413 µg/mL) | 0.1 µM (≈ 0.0826 µg/mL)
Cc1ccc(NC(=O)N[C@@H](Cc2cc(F)cc(F)c2)C(=O)N[C@@H]2C(=O)N3CCC[C@H]3C(=O)N(C)[C@@H]([C@@H](C)O)C(=O)N[C@@H](C)C(=O)N3C[C@H](C)C[C@H]3C(=O)O[C@H]2C)cc1 [Compound 38, (S)-3-(3,5-difluorophenyl)-N-((2R,6S,9S,11aS,17S,18S,20aS)-9-((R)-1-hydroxyethyl)-2,6,10,18-tetramethyl-5,8,11,16,20-pentaoxohexadecahydro-1H,5H,16H-dipyrrolo[2,1-c:2′,1′-l][1]oxa[4,7,10,13]tetraazacyclohexadecin-17-yl)-2-(3-(p-tolyl)ureido)propanamide] ({NH(4-Me-phenyl)-CO}-[Phe(3,5-F2)][aThr]P[NMeT]A[Pro(4R-Me)]; ester 2-C) | 0.05 µM (≈ 0.0406 µg/mL) | 0.05 µM (≈ 0.0406 µg/mL) | 0.05 µM (≈ 0.0406 µg/mL) | 0.02 µM (≈ 0.0162 µg/mL) |  | 
C[C@@H]1C[C@H]2C(=O)O[C@@H](C)[C@H](NC(=O)[C@H](Cc3cc(F)cc(F)c3)NC(=O)Nc3ccc(OC(F)(F)F)cc3)C(=O)N3CCC[C@H]3C(=O)N(C)[C@@H]([C@@H](C)O)C(=O)N[C@@H](C)C(=O)N2C1 [Compound 41, (S)-3-(3,5-difluorophenyl)-N-((2R,6S,9S,11aS,17S,18S,20aS)-9-((R)-1-hydroxyethyl)-2,6,10,18-tetramethyl-5,8,11,16,20-pentaoxohexadecahydro-1H,5H,16H-dipyrrolo[2,1-c:2′,1′-l][1]oxa[4,7,10,13]tetraazacyclohexadecin-17-yl)-2-(3-(4-(trifluoromethoxy)phenyl)ureido)propanamide] ({NH(4-OCF3-phenyl)-CO}-[Phe(3,5-F2)][aThr]P[NMeT]A[Pro(4R-Me)]; ester 2-C) |  | 0.02 µM (≈ 0.0176 µg/mL) |  | 0.02 µM (≈ 0.0176 µg/mL) | 0.01 µM (≈ 0.00882 µg/mL) | 0.01 µM (≈ 0.00882 µg/mL)
CCc1ccc(NC(=O)N[C@@H](Cc2cc(F)cc(F)c2)C(=O)N[C@@H]2C(=O)N3CCC[C@H]3C(=O)N(C)[C@@H]([C@@H](C)O)C(=O)N[C@@H](C)C(=O)N3C[C@H](C)C[C@H]3C(=O)O[C@H]2C)cc1 [Compound 42, (S)-3-(3,5-difluorophenyl)-2-(3-(4-ethylphenyl)ureido)-N-((2R,6S,9S,11aS,17S,18S,20aS)-9-((R)-1-hydroxyethyl)-2,6,10,18-tetramethyl-5,8,11,16,20-pentaoxohexadecahydro-1H,5H,16H-dipyrrolo[2,1-c:2′,1′-l][1]oxa[4,7,10,13]tetraazacyclohexadecin-17-yl)propanamide] ({NH(4-Et-phenyl)-CO}-[Phe(3,5-F2)][aThr]P[NMeT]A[Pro(4R-Me)]; ester 2-C) |  | 0.05 µM (≈ 0.0413 µg/mL) |  | 0.01 µM (≈ 0.00826 µg/mL) | 0.01 µM (≈ 0.00826 µg/mL) | 0.02 µM (≈ 0.0165 µg/mL)
Cc1ccc(NC(=O)N[C@@H](Cc2cc(F)cc(F)c2)C(=O)N[C@@H]2C(=O)N3CCC[C@H]3C(=O)N(C)[C@@H]([C@@H](C)OP(=O)(O)O)C(=O)N[C@@H](C)C(=O)N3C[C@@H](C)C[C@H]3C(=O)O[C@H]2C)cc1 [Compound 188, (R)-1-((2S,6S,9S,11aS,17S,18S,20aS)-17-((S)-3-(3,5-difluorophenyl)-2-(3-(p-tolyl)ureido)propanamido)-2,6,10,18-tetramethyl-5,8,11,16,20-pentaoxohexadecahydro-1H,5H,16H-dipyrrolo[2,1-c:2′,1′-l][1]oxa[4,7,10,13]tetraazacyclohexadecin-9-yl)ethyl dihydrogen phosphate] ({NH(4-Me-phenyl)-CO}-[Phe(3,5-F2)][aThr]P[NMepT]A[Pro(4S-Me)]; ester 2-C) | 13 µM | 25 µM | 25 µM | 13 µM |  | 
C[C@@H]1C[C@H]2C(=O)OC[C@H](NC(=O)[C@H](Cc3ccccc3)NC(=O)Nc3ccc4c(c3)OCO4)C(=O)N3CCC[C@H]3C(=O)N3CCCC[C@H]3C(=O)N[C@@H](C)C(=O)N2C1 [Compound 194, (S)-2-(3-(benzo[d][1,3]dioxol-5-yl)ureido)-N-((2R,6S,8aS,14aS,20S,23aS)-2,6-dimethyl-5,8,14,19,23-pentaoxooctadecahydro-1H,5H,14H,19H-pyrido[2,1-i]dipyrrolo[2,1-c:2′,1′-l][1]oxa[4,7,10,13]tetraazacyclohexadecin-20-yl)-3-phenylpropanamide] |  | 1.56 µM (≈ 1.23 µg/mL) |  | < 0.2 µM | 0.39 µM (≈ 0.307 µg/mL) | 0.39 µM (≈ 0.307 µg/mL)
C[C@@H]1C[C@H]2C(=O)OC[C@H](NC(=O)[C@H](Cc3cc(F)cc(F)c3)NC(=O)Nc3ccc4c(c3)OCO4)C(=O)N3CCC[C@H]3C(=O)N3CCCC[C@H]3C(=O)N[C@@H](C)C(=O)N2C1 [Compound 195, (S)-2-(3-(benzo[d][1,3]dioxol-5-yl)ureido)-3-(3,5-difluorophenyl)-N-((2R,6S,8aS,14aS,20S,23aS)-2,6-dimethyl-5,8,14,19,23-pentaoxooctadecahydro-1H,5H,14H,19H-pyrido[2,1-i]dipyrrolo[2,1-c:2′,1′-l][1]oxa[4,7,10,13]tetraazacyclohexadecin-20-yl)propanamide] |  | 0.6 µM (≈ 0.494 µg/mL) |  | 0.1 µM (≈ 0.0824 µg/mL) | 0.3 µM (≈ 0.247 µg/mL) | 0.6 µM (≈ 0.494 µg/mL)
